According to patent US20260070900A1, “A NOVEL CRYSTALLINE FORM OF PRITELIVIR” (Assembly Biosciences, Inc., priority 2022, published 2026):
“Also recorded” adds a separate entry of the source.

Experiments:
[1] = Dynamic vapor sorption (DVS) humidity stability, with XRPD post-DVS; assay type: physicochemical
Protocol: Powder X-Ray Diffraction (PXRD): PXRD diffractograms were acquired on Rigaku Smartlab SE diffractometer using Cu, Kα, Kα1(Å):1.540598, Kα2(Å):1.544426 radiation with a Kα2:Kα1 intensity ratio of 0.50. X-Ray tube setting was 40 kV, 15 mA, Scan Mode 1D. The scan range (2 theta) was 3-40°, step size (2 theta) of 0.02° with scan speed (2 theta) of 10°/min. Dynamic Vapor Sorption (DVS): DVS analysis was performed on an Adventure DVS instrument, using a partial pressure range of 0-90%, with a step size of 10% and dm/dt=0.002. DVS data was collected at 25° C. 2 cycles were performed per analysis. Gas flow of N2 (200 sccm) was used.

[2] = Solubility determination in 0.9% NaCl and 0.5% polysorbate 80 (HPLC of filtrate); assay type: physicochemical; conditions: RT, aqueous vehicle with 0.9% NaCl and 0.5% polysorbate 80, at 24 hours
Protocol: Sample preparation: excess Type 4 was added to the vehicle containing 0.9% NaCl and 0.5% polysorbate 80. The mixture was sonicated for 15 minutes, then agitated at 500 rpm at room temperature. At 24 hours, the mixture was filtrated, and filtrate was analyzed by HPLC to determine the solubility. • Instrument: Agilent 1260 • Column: ACE ultracore super C18 (100 mm*4.6 mm*2.5 μm) (P/N: CORE-25A-1046U) • Wavelength: 234 nm • Column Temperature: 20° C. • Column Flow: 1.0 mL/min • Acquisition time: 25 min • Injection volume: 5 μL • Retention time: ˜14 min • Mobile Phase A: 5 mM (NH4)2HPO4 and 5 mM of NH4H2PO4 in H2O • Mobile Phase B: ACN The solubility of Form C (hemihydrate as disclosed in WO 2018/096170) was determined in the same media used to determine the solubility of Type 4 as described above. Sample preparation: excess Form C was added to the vehicle containing 0.9% NaCl and 0.5% polysorbate 80. The mixture was sonicated for 15 minutes, then agitated at 500 rpm at room temperature. […]

[3] = DVS at 25° C., 0-90% partial pressure, 2 cycles

| SMILES | relative humidity at which the form is stable (DVS) [1, 3] | relative humidity at which weight loss is observed (DVS) [1, 3] | solid form post DVS experiment by XRPD ([1]; after DVS, XRPD) | stability to humidity (in words) ([1]; conclusion from the characterization data of Example 1) | solubility [2] |
| --- | --- | --- | --- | --- | --- |
| Cc1nc(N(C)C(=O)Cc2ccc(-c3ccccn3)cc2)sc1S(N)(=O)=O [Type 4, N-methyl-N-(4-methyl-5-sulfamoylthiazol-2-yl)-2-(4-(pyridin-2-yl)phenyl)acetamide] | greater than 20% | less than 10% | confirmed as Type 4 | stable across a large humidity range; also recorded: stable across a wide range of humidity levels | around 18.2 μg/mL |
| Cc1nc(N(C)C(=O)Cc2ccc(-c3ccccn3)cc2)sc1S(N)(=O)=O [Form C, N-methyl-N-(4-methyl-5-sulfamoylthiazol-2-yl)-2-(4-(pyridin-2-yl)phenyl)acetamide, reference compound] | – | – | – | – | around 8.4 μg/mL |
